SMILES strings stand for the structures.

A word on the IC50: it is the point on the concentration scale where inhibition reaches its midpoint.

The target in this assay is T1, human CaSR (Homo sapiens, UniProt P41180).
T1 sequence (P41180 20-1078): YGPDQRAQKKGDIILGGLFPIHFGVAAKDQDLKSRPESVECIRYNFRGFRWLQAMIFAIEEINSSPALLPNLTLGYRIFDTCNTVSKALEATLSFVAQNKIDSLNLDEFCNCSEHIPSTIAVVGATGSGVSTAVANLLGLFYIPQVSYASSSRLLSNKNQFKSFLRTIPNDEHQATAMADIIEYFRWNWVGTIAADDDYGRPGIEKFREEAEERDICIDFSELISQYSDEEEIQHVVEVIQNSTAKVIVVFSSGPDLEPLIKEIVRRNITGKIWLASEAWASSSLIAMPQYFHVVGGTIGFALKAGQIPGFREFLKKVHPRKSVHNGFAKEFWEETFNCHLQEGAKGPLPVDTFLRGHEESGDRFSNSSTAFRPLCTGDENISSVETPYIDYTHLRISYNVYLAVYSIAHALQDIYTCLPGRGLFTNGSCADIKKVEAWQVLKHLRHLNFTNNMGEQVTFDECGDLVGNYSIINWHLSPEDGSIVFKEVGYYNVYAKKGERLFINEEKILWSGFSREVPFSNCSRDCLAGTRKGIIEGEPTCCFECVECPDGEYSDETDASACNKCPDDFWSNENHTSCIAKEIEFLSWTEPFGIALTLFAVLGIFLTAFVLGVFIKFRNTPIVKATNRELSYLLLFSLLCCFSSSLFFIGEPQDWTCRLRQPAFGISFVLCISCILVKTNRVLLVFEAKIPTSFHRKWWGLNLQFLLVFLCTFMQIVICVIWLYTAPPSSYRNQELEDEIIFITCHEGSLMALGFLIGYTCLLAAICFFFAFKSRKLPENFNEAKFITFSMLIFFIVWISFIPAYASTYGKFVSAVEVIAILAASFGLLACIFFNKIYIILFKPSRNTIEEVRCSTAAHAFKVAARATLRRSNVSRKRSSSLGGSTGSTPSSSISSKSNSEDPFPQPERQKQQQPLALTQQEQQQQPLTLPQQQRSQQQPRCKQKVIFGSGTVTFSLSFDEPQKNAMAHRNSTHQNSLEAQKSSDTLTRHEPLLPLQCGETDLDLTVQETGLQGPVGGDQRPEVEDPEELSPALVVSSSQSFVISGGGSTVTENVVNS
Description: CaSR FLIPR assay (calcilytic activity). The class given is cell-based. Details: expressed in transfected cells. Conditions: HEK293 cells stably expressing human recombinant CaSR; 1 mM CaCl2 agonist; Tables 1-24; read-out: FLIPR ASSAY IC50. The protocol:
Procedures for CaSR FLIPR Assay
Calcilytic activity of the compound is measured in HEK293 cells stably expressing human recombinant CaSR (HEK-CaSR) using a FLIPR^TETRA device (Molecular Devices, Sunnyvale, Calif.) according to the manufacturer's directions. […] On the day of the assay, one vial of FLIPR Calcium 4 Assay Kit reagent Component A was equilibrated to room temperature. The content of the Component A vial was diluted by adding 10 ml dilution buffer (2×loading dye). The sample was mixed by vortexing (1-2 minutes) until the contents of the vial dissolved. The Component A vial mixture was diluted with 10 ml dilution buffer. Media was aspirated from the cells and 80 μl of loading buffer was added to each well. Plates were incubated for 1 hour at 37° C. and then placed at room temperature for 10 minutes. A two-stage method of generating 10-point serial dilutions was used. Compound was serially diluted in 100% DMSO (10 point, 3-fold dilution of each compound from 2 mM in 100% DMSO). 3 μl of serially diluted compound was transferred into a second assay microplate that contained 97 μl of TETRA dilution buffer (20 mM HEPES pH7.4, 1×HBSS without Ca and Mg, 0.4 mM CaCl2, 0.4 mM MgSO4, 0.5 mM MgCl2) to create the intermediate dilution plate. After reading the base line, the compounds in 0.5% DMSO in dilution buffer were added to their respective wells as 20 μl aliquots at 6×the final drug concentration. The fluorescence signals were then read. Subsequently, 20 μl of 3.6 mM of CaCl2 agonist (1 mM final concentration) was added to each well. For background, 20 μl of TETRA dilution buffer was added instead. The protocol consisted of a pre-addition read of 10 frames (10×1 frame/sec), a post 1st addition read of 100 frames (60×1 frame/sec, 40×1 frame/3 sec), pause 3 min, a post 2nd addition read of 100 frames (60×1 frame/sec, 40×1 frame/3 sec) on a FLIPR^TETRA Plate Reader.
`CSc1ccc(CC(C)(C)NC[C@@H](O)CO[C@H](C)c2cccc3c2[C@@H]2[C@H](O3)[C@H]2C(=O)O)cc1` [Example 5-13]: the half-maximal inhibitory concentration (IC50) was 0.072 µM.

For the compound `CSc1ccc(CC(C)(C)NC[C@@H](O)CO[C@H](C)c2cccc3c2[C@@H]2[C@H](O3)[C@H]2C(=O)O)cc1F` [Example 5-14], the IC50 turned out to be 0.027 µM.

`C[C@@H](OC[C@H](O)CNC(C)(C)Cc1ccc([S+](C)[O-])c(F)c1)c1cccc2c1[C@@H]1[C@H](O2)[C@H]1C(=O)O` (stereo partly drawn) [Example 5-15]: the IC50 is over 10 µM.

`COc1ccc(CC(C)(C)NC[C@@H](O)CO[C@H](C)c2cccc3c2[C@@H]2[C@H](O3)[C@H]2C(=O)O)c(Cl)c1` [Example 5-16]: the IC50 is 0.038 µM.

Take `C[C@@H](OC[C@H](O)CNC(C)(C)CCSc1ccccc1)c1cccc2c1[C@@H]1[C@H](O2)[C@H]1C(=O)O` [Example 5-17]: the IC50 is 0.15 µM.

Regarding `CSc1ccc(CC(C)(C)NC[C@@H](O)CO[C@H](C)c2cccc3c2[C@@H]2[C@H](O3)[C@H]2C(=O)O)cc1Cl` [Example 5-18], the IC50 came to 0.053 µM.

As for `CSc1ccc(CC(C)(C)NC[C@@H](O)CO[C@H](C)c2cccc3c2[C@@H]2[C@H](O3)[C@H]2C(=O)O)cc1C` [Example 5-19], the IC50 was determined as 0.097 µM.

Regarding `CCOC(=O)[C@@H]1[C@H]2Oc3cccc([C@@H](C)OC[C@H](O)CNC(C)(C)Cc4ccc5ccccc5c4)c3[C@H]21` [Example 5-20], the IC50 worked out at 0.13 µM.

For the compound `C[C@@H](OC[C@H](O)CNC(C)(C)Cc1ccc2ccccc2c1)c1cccc2c1[C@@H]1[C@H](O2)[C@H]1C(=O)NS(=O)(=O)C1(C)CC1` [Example 6-1], the IC50 is 0.03 µM.

With `C[C@@H](OC[C@H](O)CNC(C)(C)Cc1ccc2ccccc2c1)c1cccc2c1[C@H]1[C@@H](O2)[C@@H]1C(=O)O` [Example 7-1], the IC50 was 0.08 µM.

With `Cc1ccc([C@@H](C)OC[C@H](O)CNC(C)(C)Cc2ccc3ccccc3c2)c2c1O[C@@H]1[C@@H](C(=O)O)[C@H]21` [Example 8-1], the IC50 stood at 0.014 µM.

Take `Cc1ccc([C@@H](C)OC[C@H](O)CNC(C)(C)Cc2ccc(Cl)c(F)c2)c2c1O[C@@H]1[C@@H](C(=O)O)[C@H]21` [Example 8-2]: the IC50 was 0.0585 µM.

Consider `Cc1ccc([C@@H](C)OC[C@H](O)CNC(C)(C)CC2Cc3ccccc3C2)c2c1O[C@@H]1[C@@H](C(=O)O)[C@H]21` [Example 8-3], for which the IC50 is 0.02 µM.

`Cc1ccc(CC(C)(C)NC[C@@H](O)CO[C@H](C)c2ccc(C)c3c2[C@@H]2[C@H](O3)[C@H]2C(=O)O)cc1F` [Example 8-4]: the IC50 turned out to be 0.021 µM.

For the compound `Cc1ccc(CC(C)(C)NC[C@@H](O)CO[C@H](C)c2ccc(C)c3c2C2[C@H](O3)[C@H]2C(=O)O)cc1C` (stereo partly drawn) [Example 8-5], the IC50 came to 0.018 µM.

For the compound `Cc1ccc([C@@H](C)OC[C@H](O)CNC(C)(C)Cc2cc3ccccc3s2)c2c1O[C@@H]1[C@@H](C(=O)O)[C@H]21` [Example 8-6], the concentration for half-maximal inhibition (IC50) was found to be 0.096 µM.

In the case of `Cc1ccc([C@@H](C)OC[C@H](O)CNC(C)(C)Cc2ccc3occc3c2)c2c1O[C@@H]1[C@@H](C(=O)O)[C@H]21` [Example 8-7], the IC50 was 0.042 µM.

With `Cc1ccc([C@@H](C)OC[C@H](O)CN2CCCC2Cc2ccccc2)c2c1O[C@@H]1[C@@H](C(=O)O)[C@H]21` (stereo partly drawn) [Example 8-8], the IC50 came out at 0.489 µM.

For `Cc1ccc([C@@H](C)OC[C@H](O)CNC(C)(C)Cc2cccc3ccccc23)c2c1O[C@@H]1[C@@H](C(=O)O)[C@H]21` [Example 8-9], the IC50 worked out at 0.119 µM.

With `Cc1ccc([C@@H](C)OC[C@H](O)CNC(C)(C)Cc2ccc3c(c2)CCC3)c2c1O[C@@H]1[C@@H](C(=O)O)[C@H]21` [Example 8-10], the IC50 is 0.015 µM.

As to `Cc1ccc([C@@H](C)OC[C@H](O)CNC(C)(C)Cc2ccc3c(c2)OCO3)c2c1O[C@@H]1[C@@H](C(=O)O)[C@H]21` [Example 8-11], the IC50 turned out to be 0.05 µM.

Consider `Cc1ccc([C@@H](C)OC[C@H](O)CNC(C)(C)Cc2ccc3sccc3c2)c2c1O[C@@H]1[C@@H](C(=O)O)[C@H]21` [Example 8-12], for which the IC50 was found to be 0.01 µM.

With `Cc1ccc([C@@H](C)OC[C@H](O)CNC(C)(C)Cc2ccc3c(c2)OCCO3)c2c1O[C@@H]1[C@@H](C(=O)O)[C@H]21` [Example 8-13], the IC50 came out at 0.022 µM.

As to `COc1ccc(CC(C)(C)NC[C@@H](O)CO[C@H](C)c2ccc(C)c3c2[C@@H]2[C@H](O3)[C@H]2C(=O)O)c(F)c1` [Example 8-14], the concentration for half-maximal inhibition (IC50) was determined as 0.03 µM.

With `Cc1ccc([C@@H](C)OC[C@H](O)CNC(C)(C)Cc2ccc(Cl)c(Cl)c2)c2c1O[C@@H]1[C@@H](C(=O)O)[C@H]21` [Example 8-15], the IC50 was determined as 0.014 µM.

As to `Cc1ccc([C@@H](C)OC[C@H](O)CNC(C)(C)CCCc2ccccc2)c2c1O[C@@H]1[C@@H](C(=O)O)[C@H]21` [Example 8-16], the IC50 was 0.029 µM.

`Cc1ccc([C@@H](C)OC[C@H](O)CNC(C)(C)CCOc2ccccc2)c2c1O[C@@H]1[C@@H](C(=O)O)[C@H]21` [Example 8-17]: the IC50 came to 0.09 µM.

For the compound `Cc1ccc([C@@H](C)OC[C@H](O)CN2CCCC2(C)Cc2ccccc2)c2c1O[C@@H]1[C@@H](C(=O)O)[C@H]21` (stereo partly drawn) [Example 8-18], the 50% inhibitory concentration (IC50) was 1.33 µM.

On to `Cc1ccc([C@@H](C)OC[C@H](O)CNC(C)(C)Cc2ccc(F)c(F)c2)c2c1O[C@@H]1[C@@H](C(=O)O)[C@H]21` [Example 8-19], for which the IC50 worked out at 0.138 µM.

Turning to `Cc1ccc([C@@H](C)OC[C@H](O)CNC(C)(C)Cc2cc(F)c(F)cc2F)c2c1O[C@@H]1[C@@H](C(=O)O)[C@H]21` [Example 8-21], the IC50 is 0.099 µM.

In the case of `Cc1ccc([C@@H](C)OC[C@H](O)CNC(C)(C)Cc2c(F)cc(F)cc2F)c2c1O[C@@H]1[C@@H](C(=O)O)[C@H]21` [Example 8-22], the IC50 came to 0.21 µM.

Consider `CSc1ccc(CC(C)(C)NC[C@@H](O)CO[C@H](C)c2ccc(C)c3c2C2[C@H](O3)[C@H]2C(=O)O)cc1` (stereo partly drawn) [Example 8-23], for which the IC50 was 0.04 µM.

Regarding `Cc1ccc([C@@H](C)OC[C@H](O)CNC(C)(C)Cc2ccc3ncccc3c2)c2c1O[C@H]1C2[C@@H]1C(=O)O` (stereo partly drawn) [Example 8-25], the IC50 amounted to 0.46 µM.

Consider `Cc1ccc([C@@H](C)OC[C@H](O)CNC(C)(C)Cc2ccc3c(c2)CCS3)c2c1O[C@@H]1[C@@H](C(=O)O)[C@H]21` [Example 8-26], for which the IC50 is 0.021 µM.

As for `Cc1ccc([C@@H](C)OC[C@H](O)CNC(C)(C)Cc2ccc3c(c2)CCS3(=O)=O)c2c1O[C@@H]1[C@@H](C(=O)O)[C@H]21` [Example 8-27], the IC50 was over 10 µM.

Turning to `COc1ccc(CC(C)(C)NC[C@@H](O)CO[C@H](C)c2ccc(C)c3c2[C@@H]2[C@H](O3)[C@H]2C(=O)O)c(Cl)c1` [Example 8-28], the IC50 came out at 0.022 µM.

On to `Cc1ccc([C@@H](C)OC[C@H](O)CNC(C)(C)CSCc2ccccc2)c2c1O[C@@H]1[C@@H](C(=O)O)[C@H]21` [Example 8-29], for which the IC50 is 0.5 µM.

Consider `Cc1ccc([C@@H](C)OC[C@H](O)CNC(C)(C)CCSc2ccccc2)c2c1O[C@@H]1[C@@H](C(=O)O)[C@H]21` [Example 8-30], for which the IC50 amounted to 0.05 µM.

For the compound `Cc1ccc([C@@H](C)OC[C@H](O)CNC(C)(C)CCSc2ccc(F)cc2)c2c1O[C@@H]1[C@@H](C(=O)O)[C@H]21` [Example 8-31], the IC50 was determined as 0.065 µM.

The record behind these values is patent US20160311791A1, “NOVEL TRICYCLIC CALCIUM SENSING RECEPTOR ANTOGONISTS FOR THE TREATMENT OF OSTEOPOSOSIS” (MERCK SHARP & DOHME CORP., priority 2013, published 2016).
